Laboratory results taken from patent US20170151266A1, “METHODS AND COMPOSITIONS FOR ENHANCED DRUG DELIVERY TO THE EYE AND EXTENDED DELIVERY FORMULATIONS” (THE REGENTS OF THE UNIVERSITY OF COLORADO, A BODY, priority 2011, published 2017).
Several values for one entry are separate records, joined by “and”; a condition that tells them apart may be missing. Equal values may be shown once.

Assays:
[1] = In vitro transscleral transport of budesonide/budesonide pro-drugs; format: in vitro ADME, bovine; conditions: sclera to RPE direction (A to B); 6 h; 37° C.
Text: Freshly excised bovine eyes were used in all studies. […] Equatorial region of the remaining sclera-choroid-[…]) was used as is for SCRPE transport studies. […] Isotonic assay buffer (pH 7.4) with the following composition was used during the entire tissue isolation procedure and transport study: […] Two hundred microliters of sample was collected from the receiver side at specific time intervals and replenished with fresh buffer. The drug/pro-drug content in the receiver and donor samples was analyzed using an LC-MS/MS method.

[2] = tested on: ARPE19 cells; conditions: at nanomolar concentrations, glucocorticoid-receptor mediated; cited from earlier work
[3] = Aqueous solubility (Solaq) listed in physicochemical property tables; conditions: pH 7.4, 25° C.
[4] = for binding/association constant (K, Ka) with melanin: 1 mg/ml melanin suspension in PBS (pH 7.4), 37° C., celecoxib 2 μg/ml, pro-drugs 250 μg/ml
[5] = tested on: blood retinal barrier leakage; conditions: diabetic rats; eye drops twice daily for 60 days; C-SA 0.2% w/v, C-SA-T 1.0% w/v
Method: After overnight fasting for 12-16 h, an intraperitoneal injection of 30 mg/ml solution of streptozotocin in 10 mM citrate buffer (pH 4.5) was administered (60 mg/kg body weight) to induce diabetes. After 3-4 h of streptozotocin injection, animals were put on regular diet and 24 h after streptozotocin injection, blood sample (5-10 μl) was collected via tail vein. The blood glucose levels in the animals were determined with a glucose monitor (One Touch; Life Scan Inc., Milpitas, Calif.). Animals with blood glucose levels greater than 250 mg/dL were considered diabetic. The animals were divided into four groups. […] Treatment was started immediately after diabetes induction. […]
Retinal FITC-Dextran Leakage: BN rats from each group were used for the assessment of FITC-dextran leakage. […] The relative FITC-dextran fluorescence units in 1 ml of supernatant were measured using a spectrofluorometer set at an excitation wavelength of 483 nm and an emission wavelength of 538 nm. Fluorescence of blank PBS was also
measured for subtraction from each sample reading. Final concentration of FITC-dextran was expressed as μg/g tissue. […] 20 μ (˜20 mg) of plasma was diluted to 1 ml (50 times dilution) with PBS for quantification under the linear range of the standard samples. […] The amount of FITC-dextran leakage in to the ocular tissues was calculated using the following equation, after correcting for dilutions.

[6] = tested on: retinal leukostasis; conditions: diabetic rats; eye drops twice daily for 60 days; C-SA 0.2% w/v, C-SA-T 1.0% w/v
Method: After overnight fasting for 12-16 h, an intraperitoneal injection of 30 mg/ml solution of streptozotocin in 10 mM citrate buffer (pH 4.5) was administered (60 mg/kg body weight) to induce diabetes. After 3-4 h of streptozotocin injection, animals were put on regular diet and 24 h after streptozotocin injection, blood sample (5-10 μl) was collected via tail vein. The blood glucose levels in the animals were determined with a glucose monitor (One Touch; Life Scan Inc., Milpitas, Calif.). Animals with blood glucose levels greater than 250 mg/dL were considered diabetic. The animals were divided into four groups. […] Treatment was started immediately after diabetes induction. Both eyes were dosed twice daily for 60 days in group 2, 3 and 4 with their respective treatment. Animals in groups 2-4 were sacrificed at the end of 2 months. Normal animals in group 1 were sacrificed immediately after acclimatization in the animal facility. For each of the three assays, namely, FITC-Dextran leakage, vitreous-to-plasma protein ratio, and leukostasis, we used 4 animals from each of the four groups mentioned above.
BN rats from each group were used for the assessment of adherent leukocytes. At 1 hour after last dose on day 61, rats were sacrificed for ex-vivo retinal leukostasis assay. First, the animals were anesthetized with ketamine (80 mg/kg) and xylazine (12 mg/kg) administered intraperitoneally. […]

[7] = In vitro transport across bovine cornea
Text: (§1) Freshly excised bovine eyes procured from a local slaughter house were used for all in vitro transport studies. Fatty or adherent tissue all around the eye is removed first. Cornea and conjunctiva were then removed. For isolation of sclera and choroid-RPE (CRPE), the anterior segment of the eye was removed with a circumferential cut below the limbus. The eye was cut into two halves along the geometric axis, a line joining the anterior pole (corneal center) and the posterior pole (center of the scleral curve), and the vitreous was removed. Neural retina was removed by exposing the eyecup to isotonic assay buffer at pH 7.4. Equatorial region of the remaining sclera-choroid-RPE (SCRPE) was used as is for SCRPE transport studies. All transport studies for celecoxib were performed in presence of 5% HP-β-CD. […] Drug solutions were prepared in the following manner: Celecoxib (100 μg/ml) in presence of 5% HP-β-CD was made after triturating celecoxib with HP-β-CD in a pestle-mortar followed by addition of assay buffer. The mixture was stirred for 24 h. Before use, the clear solution was filtered through 0.2 μ filter. […] All transport experiments were performed for 6 h at 37° C. Samples were collected at regular time intervals from the receiver side with replacement with fresh assay buffer (pH 7.4). Transport studies with all solutes were performed in A to B direction meaning outward to inward (eg. sclera towards choroid-RPE) movement of the solute was measured. […] Samples from all the transport studies were analyzed on LC-MS/MS.

[8] = tested on: blood retinal barrier leakage; conditions: diabetic rats; eye drops twice daily for 60 days; C-SA 0.2% w/v, C-SA-T 1.0% w/v; remark: listed apart in the source
Method: The animals were divided into four groups.
Plasma samples were stored at −80° C.

[9] = In vitro transport across bovine sclera-choroid-RPE (celecoxib series)
Text: as §1

[10] = In vitro transport across bovine conjunctiva
Text: Freshly excised bovine eyes procured from a local slaughter house were used for all in vitro transport studies. Fatty or adherent tissue all around the eye is removed first. Cornea and conjunctiva were then removed. For isolation of sclera and choroid-RPE (CRPE), the anterior segment of the eye was removed with a circumferential cut below the limbus. The eye was cut into two halves along the geometric axis, a line joining the anterior pole (corneal center) and the posterior pole (center of the scleral curve), and the vitreous was removed. Neural retina was removed by exposing the eyecup to isotonic assay buffer at pH 7.4. Equatorial region of the remaining sclera-choroid-RPE (SCRPE) was used as is for SCRPE transport studies. All transport studies for celecoxib were performed in presence of 5% HP-β-CD. […] Drug solutions were prepared in the following manner: Celecoxib (100 μg/ml) in presence of 5% HP-β-CD was made after triturating celecoxib with HP-β-CD in a pestle-mortar followed by addition of assay buffer. The mixture was stirred for 24 h. Before use, the clear solution was filtered through 0.2 μ filter. […] Transport studies with all solutes were performed in A to B direction meaning outward to inward (eg. sclera towards choroid-RPE) movement of the solute was measured. […] Samples from all the transport studies were analyzed on LC-MS/MS.

[11] = 10 μl eye drop, 2 mg/ml; 1 h
Method: At the end of 1 h, the animals were euthanized and the eyes were enucleated. Periocular tissue and plasma samples were collected.
Sample processing: Acetonitrile precipitation method was used for drug extraction from the tissues. Briefly, eyes from each eye drop study were dissected for tissue isolation. Tissues were homogenized in 250 μl water (pH 7.4 adjusted with 5 mM ammonium acetate) containing indoprofen as internal standard at a concentration of 500 ng/ml (1000 ng/ml stock was made). Similar volume of acetonitrile was added and mixed well by vortexing for 30 minutes. Samples were centrifuged at 15,000 rpm for 30 minutes. Supernatant was collected for LC-MS/MS analysis.
Total run time was 5.5 min.

[12] = In vivo delivery of bevacizumab in rats, ocular fluorophotometry after intravitreal injection; parameters: species or system rat; conditions: day 15
Method: Rats were anesthetized by intraperitoneal injection of ketamine (35 mg/kg)/xylazine (5 mg/kg) and once the rats were under anesthesia, betadine solution was applied on the eye surface, and intravitreal injections were made using a 30-G needle. […] Baseline fluorescence values of eyes were monitored before injecting the formulations. At each time point, three fluorometric scans were taken and the mean value was used.

[13] = Pharmacokinetic model of budesonide succinate transport; parameters: species or system bovine; conditions: PK model, A to B in presence of inhibitor (FIG. 4A)
Text: Circles on left side (5 BSA; 6 B) represent the donor chamber whereas circles on right side (7 BSA; 8 B) represent the receiver chamber for BSA transport in A to B direction. 6 B and 8 B were included and represent budesonide formed/transported during the course of transport study. A separate compartment was included to account for the pro-drug/parent drug loss due to tissue absorption. K5>0 represents rate constant for drug loss into the tissue, K5>6 and K7>8 represent rate constants for pro-drug conversion into parent drug on donor and receiver side respectively. […] K5>7 Act represent active transport rate constant and contribution (0.5%) of active diffusion in BSA transport.
The model was developed in such a way that it accounted for transport of pro-drug from the donor to the receiver side, transport of parent drug formed in the donor chamber to the receiver side over the period of transport study, loss of pro-drug/drug into the tissues and any backward transport from the receiver to the donor side. The transport rate constants for parent drug and pro-drug were calculated from the cumulative percentage transport values. Rate constant for conversion of pro-drug to the parent drug was calculated from the percentage of the pro-drug and parent drug formed. Model was run with the dose amounts observed in the donor and receiver sides after 6 h transport studies. […]

[14] = Ex vivo transscleral delivery after posterior subconjunctival injection in euthanized rats; parameters: species or system Brown Norway (BN) rats
Method: All animals were handled according to the ARVO statement for the use of Animals in Ophthalmic and Vision Research. […] Drug suspensions were shaken before each posterior subconjunctival injection. Rats were divided into two groups. […] Twenty-five microliters of budesonide suspension was injected using a 30 G needle in the posterior subconjunctival space of one eye of each animal and the other eye was not treated. At the end of 1 h, eyes were enucleated and immediately frozen in dry ice and isopentane bath. All samples were stored at −80 ° C. until LCMS/MS analysis. […] At the end of 1 h, the eyes were enucleated and frozen in a similar manner as above until analysis. Periocular tissue samples were also collected from both the groups at the end of the study. Different ocular tissues including sclera, choroid-RPE, retina, and vitreous were isolated and analyzed for drug levels.

[15] = end of 6 h, 37° C., 100 μg/ml, celecoxib in 5% HP-β-CD
[16] = Group 2, 25 μl of 1 mg/ml suspension, posterior subconjunctival, 1 h

In the case of `CCCC1O[C@@H]2C[C@H]3[C@@H]4CCC5=CC(=O)C=C[C@]5(C)[C@H]4[C@@H](O)C[C@]3(C)[C@]2(C(=O)CO)O1` (stereo partly drawn) [Budesonide], the cumulative percentage transport [1] is given as 0.2%, the “VEGF secretion and mRNA expression” value [2] is given as “capable of reducing” and the Solaq ([3]; Table 1) is given as “Budesonide (0.02) mg/ml”.

In the case of `Cc1ccc(-c2cc(C(F)(F)F)nn2-c2ccc(S(=O)(=O)NC(=O)CCC(=O)O)cc2)cc1` [C-SA, Celecoxib succinamidic acid], the “binding/association constant (K, Ka) with melanin” value (shortened to “binding/association constant”) [4] is reported as 8.89×10^3 M^−1 and 8.89 E3 M^−1, the “retinal FITC-dextran leakage (mean± s.d.)” value [5] is reported as 93.66 ± 37.08 µL/g/min and the “Mean retinal leukocyte count” value [6] is reported as 95±12.

With `Cc1ccc(-c2cc(C(F)(F)F)nn2-c2ccc(S(=O)(=O)NC(=O)CCC(=O)NCCS(=O)(=O)O)cc2)cc1` [C-SA-T, celecoxib succinamidic acid taurine] the “Transport across bovine cornea, times higher than celecoxib” value [7] was ~25 times, the “reduction in transport across cornea with taurine as an inhibitor” value [7] was > 50% and the “average vitreous-to-plasma protein ratio” value [8] was 0.28±0.06. For the same compound, the “Transport across bovine sclera-choroid-RPE, times higher than celecoxib” value [9] was ~20 times, the “reduction in transport across SCRPE with taurine as an inhibitor” value [9] was > 50% and the “binding/association constant” value [4] was 7.39×10^3 M^−1 and 7.93 E3 M^−1. The “melanin binding, fold lower than that of celecoxib” value ([4]; ITC) was ~130 fold, the “retinal FITC-dextran leakage (mean± s.d.)” value [5] was 23.64 ± 4.20 µL/g/min and the “Transport across bovine conjunctiva, times higher than celecoxib” value [10] was ~4 times. For the same compound, the “Mean retinal leukocyte count” value [6] was 47±10.

For `Cc1ccc(-c2cc(C(F)(F)F)nn2-c2ccc(S(N)(=O)=O)cc2)cc1` [Celecoxib, reference compound], the “Cumulative percent transport across bovine cornea” value [7, 15] was 0.017%, the “Transport across bovine sclera-choroid-RPE” value [9, 15] was “approximately 0.1%” and the “binding/association constant” value [4] was 1.01×10^6 M^−1 and 1.01 E6 M^−1. The “level in cornea, celecoxib compared with CSA” value [11] was “higher than CSA”, the “level in iris and CRPE, celecoxib compared with C-SA” value [11] was “higher” and the “level in periocular space, celecoxib compared with CSA” value [11] was “lower than that of CSA”. The “Transport across bovine conjunctiva” value [10, 15] was 3.9% and the Solaq ([3]; Table 2) was “Celecoxib (0.005) mg/ml”.

With `CN(C)C[C@@H]1CCn2cc(c3ccccc32)C2=C(C(=O)NC2=O)c2cn(c3ccccc23)CCO1` [Ruboxistaurin] the Solaq ([3]; Table 4) was “Ruboxistaurin (0.029) mg/ml”.

In the case of “Alexa-bevacizumab solution: Alexa Fluor 488 conjugated bevacizumab injected as solution (control)”, the “Alexa-bevacizumab concentration in the vitreous” value [12] is reported as 2.2 µg/mL.

For “Succinic acid mono-budesonide ester [budesonide succinate]”, the “contribution of active diffusion in BSA transport” value [13] was 0.5%, the “ex vivo drug level (pro-drug) in CRPE” value [14, 16] was 0.6 μg/g tissue and the “ex vivo drug level (pro-drug) in retina” value [14, 16] was 0.2 μg/g tissue. For the same compound, the “ex vivo drug level (pro-drug) in sclera” value [14, 16] was 1.9 μg/g tissue, the “ex vivo drug level (pro-drug) in vitreous” value [14, 16] was 0.05 μg/g tissue and the “ex vivo level of budesonide released from budesonide succinate in CRPE” value [14, 16] was 7.2 μg/g tissue. For the same compound, the “ex vivo level of budesonide released from budesonide succinate in retina” value [14, 16] was 2.2 μg/g tissue, the “ex vivo level of budesonide released from budesonide succinate in sclera” value [14, 16] was 11.0 μg/g tissue and the “ex vivo level of budesonide released from budesonide succinate in vitreous” value [14, 16] was 0.5 μg/g tissue. The “budesonide delivery in sclera, choroid-RPE and retina, higher with prodrug compared to plain drug budesonide” value ([14]; rat) was 2-5 folds.
